In patent publication US20230241024A1, “METHODS OF TREATING METABOLIC DISORDERS” (Sunovion Pharmaceuticals Inc., priority 2021, published 2023):

Columns and labels:
[1] = tested on: female Sprague Dawley rats fed on a high-fat powdered diet; experiment: Body weight, food intake, body composition and liver triglycerides, once daily dosing up to 15 days, high-fat diet rats (Example 2.1); type: in vivo, rat; settings: Olanzapine 3 mg/kg po
Experimental: Body weight and food and water intake were assessed daily.
Animals: Seventy-four (2 spares) female Sprague Dawley rats (weight range 200-300 g) were ordered from Charles River, Margate, Kent. Rats were singly housed in cages with sawdust bedding and enrichment at an ambient temperature of 21 ± 2° C. Upon arrival (Thursday), rats were weighed and given wet mash to aid recovery from transport. Rats were weighed the following day and on the Monday of the following week. Animals were maintained on a reverse-phase light-dark cycle (lights off for 8 hours from 10:00-18 :00 h) during which time the room was illuminated by red light. Rats were weighed on the Friday and Monday of the following week. […] Except for 12 animals (Group F), all animals had free access to a high-fat powdered diet (VRF1 plus 20% lard). […] All rats had access to filtered water at all times. The diets were contained in glass feeding jars with aluminum lids (Solmedia Laboratory Suppliers. Romford. Essex). […] Animals were accustomed to these conditions for at least two weeks before experimentation.
Experimental Procedure: Animals underwent a 3-day baseline run-in period during which time all rats were dosed once a day with vehicle. Dosing was timed to start at approximately 08:45 so that the mid-point was approximately the time of lights out. Animals, food and water were weighed at the time of dosing. Towards the end of the baseline period, animals were weighed (to the nearest 0.1 g using an electronic top-pan balance) and allocated by a statistician. The spare animals were humanely withdrawn from the study.
Dosing (in a randomized order) began at approximately 08:45 h each day (0 h), i.e., the mid-point of dosing is approximately at the time of lights out. Body weight, food and water intake was recorded daily at the time of dosing. All rats were observed before and after dosing and comments on condition were noted as appropriate. On the afternoon of Day 14 (approx. 16:00) animals were fasted to a timed schedule. The experiment ended the following morning on Day 15. On the morning of Day 15, final readings were undertaken 16 hour post-fast (i.e., body weight measurements). Animals were then dosed (as described). Four hours later, a blood sample (1 mL) was taken from the lateral tail vein into tubes containing lithium heparin. […] Animals were then terminated by a Schedule 1 method (exposure to an increasing concentration of C02 with death confirmed by cervical dislocation). A terminal blood sample (circa 4 mL) was taken into an EDTA-coated tube and a single plasma aliquot (approximately 1 mL) was stored frozen (approx. -80° C.) in a clean aliquot tube. The liver was dissected and the caudate lobe removed. Both the caudate lobe and the remaining liver were weighed and stored frozen separately (on dry ice and then transferred to a freezer at approx. -80° C.). The caudate lobe underwent option further analysis of liver triglycerides.

[2] = tested on: female Sprague Dawley rats previously treated with olanzapine; experiment: Body weight, food intake, body composition and liver triglycerides of rats previously treated with olanzapine and switched (Example 2.2); type: in vivo, rat
Experimental: Rats were singly housed in cages with sawdust bedding and enrichment at an ambient temperature of 21±2° C. Upon arrival (Thursday), rats were weighed and given wet mash to aid recovery from transport. Rats were weighed the following day and the Monday of the following week. Animals were maintained on a reverse-phase light-dark cycle (lights off for 8 h from 10:00-18:00 h) during which time the room was illuminated by red light. Rats were weighed on the Friday and Monday of the following week. […] All animals had free access to a high-fat powdered diet (VRF1 plus 20% lard) and all rats had access to filtered water at all times. The diets were contained in glass feeding jars with aluminum lids (Solmedia Laboratory Suppliers, Romford, Essex). […] Animals were accustomed to these conditions for at least two weeks before experimentation.
Dosing was timed to start at approximately 08:45 so that the mid-point was approximately the time of lights out. Animals, food and water were weighed at the time of dosing. Towards the end of this baseline period, animals were weighed (to the nearest 0.1 g using an electronic top-pan balance) and allocated into 2 weight-matched treatment groups by a Statistician.
Dosing began at approximately 08:45 h each day (0 h), i.e., so the mid-point of dosing was approximately at the time of lights out. This strategy was taken to maximize the impact of the drugs on food intake. Dosing continued for 7 consecutive days and rats were weighed (to the nearest 0.1 g) every day at 0 h. Prior to and at the completion of each dosing session animals were examined and any overt behavioral/physiological effects or other relevant observations regarding the condition of the animals was recorded manually. […] and food intake were assessed daily.
Dosing began at approximately 08:45 h each day (0h), i.e., the mid-point of dosing was approximately at the time of lights out. Body weight, food and water intake was recorded daily at the time of dosing. All rats were observed before and after dosing and comments on condition were noted as appropriate. On the afternoon of Day 14 (approx. 16:00) animals were fasted to a timed schedule. The experiment ended the following morning on Day 15. On the morning of Day 15, final readings were undertaken 16 h post-fast (i.e., body weight measurements). Animals were then dosed (as described). Four hours later, two blood samples (20 µL and 1 mL) were taken from the lateral tail vein into tubes containing lithium heparin. The 20 µL sample was stored frozen (whole blood) prior to determination of HbAlc (Roche Tina-quant A2c Gen 3, Cobas C111). […] Animals were then terminated by a Schedule 1 method (exposure to an increasing concentration of CO2 with death confirmed by cervical dislocation). A terminal blood sample (circa 4 mL) was taken into EDTA-coated tube and a single plasma aliquot (approximately 1 mL) was stored frozen (approx. -80° C.) in a clean aliquot tube. The liver was dissected and the caudate lobe removed. Both the caudate lobe and the remaining liver was weighed and stored frozen separately (on dry ice and then transferred to a freezer at approx. -80° C.). The caudate lobe underwent further analysis of liver triglycerides. Carcasses were stored frozen (approx. -20° C.) for potential body composition analysis. Metabolic parameters including fasting glucose and insulin levels, liver triglycerides and body fat composition were determined at the end of the study.

[3] = Food effect on the pharmacokinetics of 50 mg tablet (Example 10); settings: 50 mg Compound 1 tablet
From the text: Methods: The study used an open-label randomized 2-period crossover design in 20 healthy volunteers. Subjects were fasted overnight then randomly assigned to 1 of 2 dosing sequences, A ➔ B or B ➔ A, where A was the fasted condition and B was the fed condition. […] The fed and fasted dosing periods were separated by one week. Serial plasma samples from each period were collected for PK analysis.
Solid phase extraction was used for sample cleanup. Stable isotope-labeled internal standards were used for corresponding analytes. Noncompartment PK parameters were calculated using Phoenix WinNonlin® software.

[4] = Week 1 (Day 1-8), Olanzapine 3 mg/kg po
[5] = Week 2 (Day 8-13), after olanzapine Day 1-7, 3 mg/kg po
[6] = Week 2 (Day 8-14), continued Olanzapine 3 mg/kg po
[7] = from Day 8, after olanzapine Day 1-7, 3 mg/kg po

Structure (SMILES): Cc1cc2c(s1)Nc1ccccc1N=C2N1CCN(C)CC1 [Olanzapine, olanzapine]
- Fat in carcass % change vs vehicle [1]: 8.8%
- Fat in carcass Difference vs vehicle [1]: 1.4%
- Fat in carcass, Mean [1]: 16.9%
- Fat per rat % change vs vehicle [1]: 12.4%
- Fat per rat Difference vs vehicle [1]: 5.2 g
- Fat per rat, Mean [1]: 47.0 g
- Liver Total triglycerides Mean [1]: 227.46 µmol
- Liver Total triglycerides vs vehicle [1]: 85.6
- Liver triglycerides % vs vehicle [1]: 77.1%
- Liver triglycerides, Mean [1]: 25.07 µmol/g
- Protein in carcass % change vs vehicle [1]: -1.8%
- Protein in carcass Difference vs vehicle [1]: -0.38%
- Protein in carcass, Mean [1]: 20.46%
- Protein per rat % change vs vehicle [1]: 3.5%
- Protein per rat Difference vs vehicle [1]: 1.9 g
- Protein per rat, Mean [1]: 56.9 g
- Water in carcass % change vs vehicle [1]: -1.4%
- Water in carcass Difference vs vehicle [1]: -0.8%
- Water in carcass, Mean [1]: 59.9%
- Water per rat % change vs vehicle [1]: 3.6%
- Water per rat Difference vs vehicle [1]: 5.8 g
- Water per rat, Mean [1]: 166.5 g
- Daily food intake % change ([1]; Overall (Day 1-13)): 13.6%
- Daily food intake Difference ([1]; Overall (Day 1-13)): 2.0 g/day
- Daily food intake Mean ([1]; Overall (Day 1-13)): 16.4 g/day
- Changes in body weights Difference vs vehicle ([1]; Overall (Day 1-14)): 21.5 g
- Changes in body weights Mean ([1]; Overall (Day 1-14)): 33.2 g
- increase in body weight, previously shown in-house in this model ([2]; Olanzapine 3 mg/kg po): 4-6%
- Averages of daily food intakes, Difference vs Vehicle (A) ([2]; Week 1 (Day 1-7), 3 mg/kg po): 1.90 g/day
- Averages of daily food intakes, Mean ([2]; Week 1 (Day 1-7), 3 mg/kg po): 17.21 g/day
- Changes in body weights Difference vs Vehicle (A) [2, 4]: 13.07 g
- Changes in body weights Mean [2, 4]: 25.48 g
- Averages of daily food intakes, Difference vs Vehicle (A) [2, 5]: 1.60 g/day
- Averages of daily food intakes, Mean [2, 5]: 16.73 g/day
- Changes in body weights Difference vs Vehicle (A) [2, 6]: 7.55 g
- Changes in body weights Mean [2, 6]: 16.70 g
- Fat in carcass, % change vs Vehicle (A) [2, 7]: 18.3%
- Fat in carcass, Difference vs Vehicle (A) [2, 7]: 2.4%
- Fat in carcass, Mean [2, 7]: 15.8%
- Fat per rat, % change vs Vehicle (A) [2, 7]: 22.7%
- Fat per rat, Difference vs Vehicle (A) [2, 7]: 8.0 g
- Fat per rat, Mean [2, 7]: 43.3 g
- Final carcass weight, % change vs Vehicle (A) [2, 7]: 4.1%
- Final carcass weight, Mean [2, 7]: 271.9 g
- Liver triglycerides (µmol total), % vs Vehicle (A) [2, 7]: 100.4%
- Liver triglycerides (µmol/g), % vs Vehicle (A) [2, 7]: 100.0%
- Liver triglycerides, Mean [2, 7]: 348 µmol total
- Protein in carcass, % change vs Vehicle (A) [2, 7]: -2.4%
- Protein in carcass, Difference vs Vehicle (A) [2, 7]: -0.49%
- Protein in carcass, Mean [2, 7]: 20.24%
- Protein per rat, % change vs Vehicle (A) [2, 7]: 1.6%
- Protein per rat, Difference vs Vehicle (A) [2, 7]: 0.9 g
- Protein per rat, Mean [2, 7]: 55.0 g
- Water in carcass, % change vs Vehicle (A) [2, 7]: -3.6%
- Water in carcass, Difference vs Vehicle (A) [2, 7]: -2.2%
- Water in carcass, Mean [2, 7]: 60.4%
- Water per rat, % change vs Vehicle (A) [2, 7]: 0.3%
- Water per rat, Difference vs Vehicle (A) [2, 7]: 0.6 g
- Water per rat, Mean [2, 7]: 163.9 g

Structure (SMILES): NC[C@@H]1OCCc2ccsc21 [metabolite]
- geometric mean ratio for AUC0-∞ (fed/fasted) [3]: 98.29%
- geometric mean ratio of Cmax (fed/fasted) [3]: 94.77%
- ratio of N-desmethyl active metabolite to parent Compound 1, fed versus fasted [3]: no change
